Measured values as given in ChEMBL document CHEMBL1201862, “PubChem BioAssay data set” (2004).
Activity calls are given as the source filed them.

Assays:
Cytochrome P450 3A4 = Cytochrome P450 3A4 (Homo sapiens, UniProt P08684);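 also: CYP3A4 tested as one member of a cytochrome P450 panel screen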
[1] = THP-1 cell cytotoxicity, dose response, cytotoxicity control for non-replicating M. tuberculosis project (AID 489025); format: functional
[2] = Vero E6 cell cytotoxicity, dose response, cytotoxicity control for non-replicating M. tuberculosis project, secondary assay (AID 492998); format: functional, VeroE6; settings: Vero C1008
cells = format: functional
[3] = biological target: Heat shock protein HSP 90-alpha (Homo sapiens, UniProt P07900); format: functional, organism-based
[4] = biological target: T1, High affinity choline transporter 1 (Homo sapiens, UniProt Q9GZV3); experiment: human choline transporter blockers, potency – cell-based, 5-point CRC, membrane potential dye, dose response (AID 504840); format: functional
T1 sequence (Q9GZV3 whole entry): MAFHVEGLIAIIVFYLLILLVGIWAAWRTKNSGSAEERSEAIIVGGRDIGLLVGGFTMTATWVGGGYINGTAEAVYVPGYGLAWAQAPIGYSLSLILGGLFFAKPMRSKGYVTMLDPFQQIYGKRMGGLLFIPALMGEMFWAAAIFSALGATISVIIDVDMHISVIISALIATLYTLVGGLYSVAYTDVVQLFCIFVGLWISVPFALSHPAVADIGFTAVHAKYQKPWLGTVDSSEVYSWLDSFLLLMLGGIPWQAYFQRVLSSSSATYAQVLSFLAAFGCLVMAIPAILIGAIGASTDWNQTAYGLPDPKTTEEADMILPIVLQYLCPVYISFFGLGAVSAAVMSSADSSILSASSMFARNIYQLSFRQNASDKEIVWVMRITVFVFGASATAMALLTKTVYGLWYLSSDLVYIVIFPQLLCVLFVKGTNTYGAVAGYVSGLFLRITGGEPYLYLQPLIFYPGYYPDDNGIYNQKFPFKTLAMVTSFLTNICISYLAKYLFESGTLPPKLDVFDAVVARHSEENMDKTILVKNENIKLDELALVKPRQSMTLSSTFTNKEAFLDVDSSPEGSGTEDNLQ

Genome polyprotein = Genome polyprotein (dengue virus type 2, UniProt P29990); experiment: flavivirus cap methylation enzyme inhibition – biochemical, confirmation dose response, primary screen (AID 588689); format: functional
Cytochrome P450 2C19 = Cytochrome P450 2C19 (Homo sapiens, UniProt P33261); experiment: Cytochrome panel assay with activity outcomes. Panel member name: p450-cyp2c19 Compounds with AC50 equal or less than 10 uM are considered active; format: functional; settings: read-out: AC50
[5] = biological target: T2, Polyadenylate-binding protein 1 (Homo sapiens, UniProt P11940); experiment: MLLE binding blockers, Cy5 peptide tracer – biochemical, fluorescence polarization, Cy5-PAM2 peptide, secondary, miRNA deadenylation inhibitor project, dose response (AID 602260); format: functional; settings: read-out: IC50_Mean
[6] = biological target: T2, Polyadenylate-binding protein 1; experiment: MLLE domain peptide-binding blockers, IC50 – biochemical, fluorescence polarization, FITC-PAM2 peptide, dose response (AID 602259); format: functional; settings: read-out: IC50_Mean
[7] = biological target: Glucose-6-phosphate 1-dehydrogenase (Homo sapiens, UniProt P11413); experiment: inhibition of Homo sapiens G6PD, dose series – biochemical, fluorescence, selectivity assay for P. falciparum G6PD inhibitor project, dose response (AID 504792); format: functional
[8] = biological target: Luciferin 4-monooxygenase (Photinus pyralis, UniProt P08659); experiment: inhibition of purified Photinus pyralis luciferase – biochemical, luminescence, dose response (AID 1891)
[9] = Luminescence Cell-Based Dose Confirmation HTS to Identify Inhibitors of Platelet Dense Granule Release. [Related pubchem assays: 1663 (Primary HTS), 1678 (Summary of Project)]; format: functional

Chain of Cytochrome P450 3A4 (P08684 whole entry): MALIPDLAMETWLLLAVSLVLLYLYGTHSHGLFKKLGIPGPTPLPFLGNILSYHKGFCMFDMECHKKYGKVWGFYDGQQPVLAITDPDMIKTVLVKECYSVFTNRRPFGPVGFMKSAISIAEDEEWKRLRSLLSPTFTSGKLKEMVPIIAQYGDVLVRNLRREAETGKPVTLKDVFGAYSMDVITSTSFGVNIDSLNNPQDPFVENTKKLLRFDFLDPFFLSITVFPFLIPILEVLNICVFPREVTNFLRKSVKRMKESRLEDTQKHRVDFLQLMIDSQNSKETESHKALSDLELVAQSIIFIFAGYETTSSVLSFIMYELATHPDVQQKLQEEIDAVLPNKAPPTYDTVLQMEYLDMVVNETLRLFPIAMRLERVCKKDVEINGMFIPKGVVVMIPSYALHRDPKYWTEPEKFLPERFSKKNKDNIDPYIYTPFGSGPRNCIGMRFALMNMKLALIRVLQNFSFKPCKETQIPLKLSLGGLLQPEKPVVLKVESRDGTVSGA
Chain of Genome polyprotein (P29990 2492-3391 limits assumed): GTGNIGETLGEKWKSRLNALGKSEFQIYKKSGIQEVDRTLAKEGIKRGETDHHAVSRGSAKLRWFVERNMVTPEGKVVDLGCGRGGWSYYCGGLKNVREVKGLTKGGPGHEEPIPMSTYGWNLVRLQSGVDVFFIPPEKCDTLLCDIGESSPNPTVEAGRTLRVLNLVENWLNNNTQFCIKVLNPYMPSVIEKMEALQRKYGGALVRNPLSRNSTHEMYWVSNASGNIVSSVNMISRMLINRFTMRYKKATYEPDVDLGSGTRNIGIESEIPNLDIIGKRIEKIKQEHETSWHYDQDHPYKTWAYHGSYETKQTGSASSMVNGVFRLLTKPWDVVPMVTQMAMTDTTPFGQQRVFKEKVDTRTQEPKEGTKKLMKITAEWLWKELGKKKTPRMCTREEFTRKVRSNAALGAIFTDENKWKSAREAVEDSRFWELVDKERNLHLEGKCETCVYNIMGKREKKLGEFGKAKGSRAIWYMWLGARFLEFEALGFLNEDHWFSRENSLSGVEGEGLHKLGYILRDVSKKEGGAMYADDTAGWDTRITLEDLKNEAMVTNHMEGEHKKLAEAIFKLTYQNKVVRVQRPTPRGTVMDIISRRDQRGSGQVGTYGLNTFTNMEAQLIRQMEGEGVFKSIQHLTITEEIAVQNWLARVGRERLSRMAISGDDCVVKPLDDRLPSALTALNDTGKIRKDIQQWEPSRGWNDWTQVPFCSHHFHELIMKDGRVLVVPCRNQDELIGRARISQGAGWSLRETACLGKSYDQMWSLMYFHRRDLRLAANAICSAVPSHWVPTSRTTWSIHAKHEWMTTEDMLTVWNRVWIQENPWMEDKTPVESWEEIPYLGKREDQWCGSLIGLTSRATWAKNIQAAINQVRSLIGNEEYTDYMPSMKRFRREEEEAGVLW
T2 sequence (P11940 whole entry, the tested form may be a part): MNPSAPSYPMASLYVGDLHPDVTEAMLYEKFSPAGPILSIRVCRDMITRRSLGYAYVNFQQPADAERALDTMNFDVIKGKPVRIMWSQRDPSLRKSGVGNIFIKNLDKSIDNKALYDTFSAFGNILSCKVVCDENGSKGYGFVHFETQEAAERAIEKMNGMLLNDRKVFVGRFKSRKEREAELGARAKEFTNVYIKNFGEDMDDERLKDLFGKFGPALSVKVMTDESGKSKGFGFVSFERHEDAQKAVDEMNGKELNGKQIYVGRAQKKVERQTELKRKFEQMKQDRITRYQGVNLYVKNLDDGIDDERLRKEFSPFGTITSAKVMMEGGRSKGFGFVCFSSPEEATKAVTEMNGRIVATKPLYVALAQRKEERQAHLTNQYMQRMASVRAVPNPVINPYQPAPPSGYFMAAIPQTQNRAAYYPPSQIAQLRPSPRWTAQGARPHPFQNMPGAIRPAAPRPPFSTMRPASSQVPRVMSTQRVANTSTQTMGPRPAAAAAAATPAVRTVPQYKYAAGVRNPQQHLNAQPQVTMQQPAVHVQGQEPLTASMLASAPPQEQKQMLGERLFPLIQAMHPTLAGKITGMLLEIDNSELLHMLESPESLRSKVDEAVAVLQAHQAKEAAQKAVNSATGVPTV
Chain of Cytochrome P450 2C19 (P33261 whole entry): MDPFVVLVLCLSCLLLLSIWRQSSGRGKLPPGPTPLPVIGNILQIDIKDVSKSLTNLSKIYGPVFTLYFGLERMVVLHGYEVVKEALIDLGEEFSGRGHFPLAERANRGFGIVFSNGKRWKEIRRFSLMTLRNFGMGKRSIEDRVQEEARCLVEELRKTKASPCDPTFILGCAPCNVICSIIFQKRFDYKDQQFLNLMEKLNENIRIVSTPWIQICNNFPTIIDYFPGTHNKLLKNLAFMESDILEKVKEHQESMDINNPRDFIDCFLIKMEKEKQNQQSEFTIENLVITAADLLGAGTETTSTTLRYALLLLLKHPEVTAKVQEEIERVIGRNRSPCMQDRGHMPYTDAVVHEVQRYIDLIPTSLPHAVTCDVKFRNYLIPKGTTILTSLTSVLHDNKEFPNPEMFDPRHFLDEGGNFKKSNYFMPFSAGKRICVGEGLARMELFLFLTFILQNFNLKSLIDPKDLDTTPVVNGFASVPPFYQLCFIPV
Chain of Glucose-6-phosphate 1-dehydrogenase (P11413 whole entry): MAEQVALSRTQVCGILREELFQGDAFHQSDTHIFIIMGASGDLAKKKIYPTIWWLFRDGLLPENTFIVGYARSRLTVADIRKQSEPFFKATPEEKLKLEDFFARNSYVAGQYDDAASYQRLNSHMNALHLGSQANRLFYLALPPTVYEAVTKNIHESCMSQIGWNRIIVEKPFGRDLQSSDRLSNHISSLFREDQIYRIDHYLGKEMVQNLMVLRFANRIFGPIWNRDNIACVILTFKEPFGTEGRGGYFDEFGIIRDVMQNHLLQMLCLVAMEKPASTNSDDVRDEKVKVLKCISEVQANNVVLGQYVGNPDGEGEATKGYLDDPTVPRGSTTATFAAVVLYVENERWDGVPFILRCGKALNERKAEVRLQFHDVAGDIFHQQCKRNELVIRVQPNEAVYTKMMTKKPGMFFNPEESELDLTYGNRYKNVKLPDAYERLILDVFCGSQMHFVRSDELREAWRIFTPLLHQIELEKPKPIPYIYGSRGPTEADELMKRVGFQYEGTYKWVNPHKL
Chain of Luciferin 4-monooxygenase (P08659 whole entry): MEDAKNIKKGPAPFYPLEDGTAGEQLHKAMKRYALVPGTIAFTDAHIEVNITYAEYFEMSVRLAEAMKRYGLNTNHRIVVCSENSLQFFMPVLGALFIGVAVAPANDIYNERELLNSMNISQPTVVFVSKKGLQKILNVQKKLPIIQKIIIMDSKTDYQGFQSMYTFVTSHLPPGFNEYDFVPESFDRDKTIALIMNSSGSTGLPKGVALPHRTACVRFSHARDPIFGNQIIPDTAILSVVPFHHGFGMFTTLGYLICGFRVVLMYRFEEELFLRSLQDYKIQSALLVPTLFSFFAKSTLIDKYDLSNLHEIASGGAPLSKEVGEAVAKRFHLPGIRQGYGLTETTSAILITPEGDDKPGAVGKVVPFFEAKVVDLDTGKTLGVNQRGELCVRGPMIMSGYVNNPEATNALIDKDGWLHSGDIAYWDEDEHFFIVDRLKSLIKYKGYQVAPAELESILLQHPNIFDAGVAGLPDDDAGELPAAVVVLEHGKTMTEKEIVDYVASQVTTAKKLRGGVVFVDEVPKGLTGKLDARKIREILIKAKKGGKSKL

With `O=C(c1cccc(F)c1)N1CCC2(CC1)CN(c1ccc(-c3ccccc3)cc1)C2` as the compound, how does the AC50 (Cytochrome P450 3A4) read?
The AC50 was “inconclusive”.

Which CC50 [1] does the source give for `O=C(Nc1nnc(-c2ccc(F)cc2)o1)c1cc(Cl)sc1Cl` here?
The CC50 was 24.2 µM (active).

What about the CC50 [2] of the same compound?
Its CC50 is 15.3 µM (active).

And the IC50 (cells)?
The IC50 was 0.24 µM (active).

And the AC50 [3]?
Its AC50 is 1.99 µM (active).

And the IC50 [4]?
The IC50 was 14.5 µM (active).

With `O=C(O)CCN1C(=O)/C(=C\c2cccc(OCC(=O)Nc3ccc(Cl)cc3)c2)SC1=S` as the compound, how does the IC50 (Genome polyprotein) read?
The IC50 was 34.9 µM (active).

Which IC50 [4] does the source give for `C=Cn1cc[n+](CC(=O)c2ccc(Br)cc2)c1` here?
Its IC50 is 15.1 µM (active).

Which IC50 [4] does the source give for `COc1ccccc1CN1C(=O)[C@@H]2C(CCC(N)=O)NC3(C(=O)Nc4c3ccc(Cl)c4C)[C@@H]2C1=O` (stereo partly specified) here?
Its IC50 is 16.6 µM (active).

With `CCOc1ccc(CC(=O)C2C(=O)CCCC2=O)cc1OCC` as the compound, how does the AC50 (Cytochrome P450 2C19) read?
The AC50 was 39.8 µM (inconclusive).

And the AC50 (Cytochrome P450 3A4)?
Its AC50 is “inconclusive”.

For `COc1ccc(Nc2cc(Cl)ccc2C(=O)O)cn1`, which IC50 (Genome polyprotein) is on record?
The IC50 was 63.5 µM (active).

What about the IC50 [5] of the same compound?
Its IC50 is > 66 µM (inactive).

What about the IC50 [6] of the same compound?
Its IC50 is 52.2 µM (inactive).

With `O=C(Nc1nnc(S(=O)(=O)N2CCCC2)s1)c1cccc([N+](=O)[O-])c1` as the compound, how does the IC50 [7] read?
Its IC50 is 56 µM (inactive).

For `O=C(N/N=C/c1cccc([N+](=O)[O-])c1)C(=O)N1CCCCCC1`, which IC50 [7] is on record?
The IC50 was > 80 µM (inactive).

Which results are given for `CCOC(=O)c1c(C)nc2sc3c(=O)n(-c4ccc(OC)cc4)nnc3c2c1-c1ccc(OC)cc1`?
EC50 [8]: > 112 µM (not active); EC50 [9]: > 112 µM (not active); AC50 (Cytochrome P450 2C19): 2.51 µM (inconclusive); AC50 (Cytochrome P450 3A4): inconclusive

Which IC50 (Genome polyprotein) does the source give for `CCCCN(CCCC)c1ccc(C(=O)c2ccccc2C(=O)O)c(O)c1` here?
Its IC50 is 44.1 µM (active).
